From ChEMBL document CHEMBL1201862, “PubChem BioAssay data set” (2004)
The source made the active and inactive calls.

Legend:
[1] = molecular target: T1, Leucine aminopeptidase (Plasmodium falciparum 3D7, UniProt Q8IL11); test: P. falciparum M17LAP inhibitors, primary screen, biochemical, fluorogenic H-Leu-NHMec substrate, 1536-well (AID 1619); assay type: functional
T1 sequence (Q8IL11 whole entry): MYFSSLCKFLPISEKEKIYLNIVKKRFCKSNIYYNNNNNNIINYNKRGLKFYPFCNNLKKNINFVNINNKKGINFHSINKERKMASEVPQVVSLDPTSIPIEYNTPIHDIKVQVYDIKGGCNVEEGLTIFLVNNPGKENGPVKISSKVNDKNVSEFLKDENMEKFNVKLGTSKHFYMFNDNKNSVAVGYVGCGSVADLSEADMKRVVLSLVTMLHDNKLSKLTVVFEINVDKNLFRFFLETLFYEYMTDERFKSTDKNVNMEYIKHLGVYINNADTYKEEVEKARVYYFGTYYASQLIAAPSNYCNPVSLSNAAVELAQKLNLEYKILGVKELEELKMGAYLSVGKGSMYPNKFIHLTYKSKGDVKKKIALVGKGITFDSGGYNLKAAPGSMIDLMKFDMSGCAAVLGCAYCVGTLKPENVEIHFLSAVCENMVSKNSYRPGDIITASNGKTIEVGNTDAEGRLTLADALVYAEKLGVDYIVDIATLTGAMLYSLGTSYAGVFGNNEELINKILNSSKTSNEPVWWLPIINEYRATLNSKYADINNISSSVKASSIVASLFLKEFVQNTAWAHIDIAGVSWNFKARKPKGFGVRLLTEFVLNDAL

[2] = cells; assay type: functional
[3] = molecular target: G-protein coupled receptor 55 (Homo sapiens, UniProt Q9Y2T6); test: GPR55 agonists via beta-arrestin recruitment, primary screen, imaging, U2OS cells, beta-arrestin-GFP redistribution (AID 1961); assay type: functional
[4] = test system: Streptococcus; test: Group A Streptococcus viability loss, dose response, counter-screen for streptokinase expression inhibitor project, luminescence, BacTiterGlo (AID 1915); assay type: functional, organism-based;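 also: potency for reduction of bacterial viability or growth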
[5] = cytotoxicity in HPDE-C7 cells, cell-based, fluorescence, HTS (AID 430); assay type: functional; conditions: Homo sapiens
[6] = test system: Streptococcus sp. 'group A'; test: growth inhibition of control SK(-) GAS strain, dose response, counter-screen for streptokinase expression inhibitor project, luminescence, kanamycin, BacTiterGlo, confirmation (AID 1900); assay type: functional, organism-based
[7] = cytotoxicity in KRAS-transformed pancreatic duct cells, primary screen, cell-based, fluorescence, HTS (AID 431); assay type: functional; conditions: Homo sapiens;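 also: cell line used: HPDE-C7K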
[8] = test system: INS1; test: beta cell apoptosis inhibitors, cytokine rescue, dose response, luminescence, retest (AID 449756); assay type: functional, cell-based; conditions: Rattus norvegicus;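 also: cell death triggered by IL-1 beta plus TNF-alpha plus IFN-gamma mixture; protective hits raise ATP signal compared with cytokine alone wells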
[9] = molecular target: T2, Rac GTPase-activating protein 1 (Homo sapiens, UniProt Q9H0H5); test: MgcRacGAP GTPase-activating activity inhibitors, confirmation, biochemical, ADP Hunter fluorescence, primary and confirmatory (AID 624330); assay type: functional
T2 sequence (Q9H0H5 whole entry): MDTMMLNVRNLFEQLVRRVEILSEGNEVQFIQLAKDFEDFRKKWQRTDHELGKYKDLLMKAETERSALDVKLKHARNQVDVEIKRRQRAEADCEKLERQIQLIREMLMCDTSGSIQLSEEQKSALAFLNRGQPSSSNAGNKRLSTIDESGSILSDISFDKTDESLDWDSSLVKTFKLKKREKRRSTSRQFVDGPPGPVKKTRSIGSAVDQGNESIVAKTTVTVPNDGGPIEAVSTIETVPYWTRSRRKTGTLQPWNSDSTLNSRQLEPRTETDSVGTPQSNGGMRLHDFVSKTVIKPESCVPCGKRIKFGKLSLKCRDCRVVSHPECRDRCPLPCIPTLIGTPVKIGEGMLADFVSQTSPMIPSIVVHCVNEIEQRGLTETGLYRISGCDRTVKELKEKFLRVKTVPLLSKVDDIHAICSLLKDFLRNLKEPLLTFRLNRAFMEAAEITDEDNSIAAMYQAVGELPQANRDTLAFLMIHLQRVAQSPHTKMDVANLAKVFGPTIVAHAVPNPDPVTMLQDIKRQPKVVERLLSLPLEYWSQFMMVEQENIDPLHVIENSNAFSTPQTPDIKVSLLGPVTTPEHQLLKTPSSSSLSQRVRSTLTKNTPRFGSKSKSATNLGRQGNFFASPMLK

[10] = molecular target: FAD-linked sulfhydryl oxidase ALR (Homo sapiens, UniProt P55789); test: inhibitors of human ALR sulfhydryl oxidase, dose response, biochemical, H2O2 detection, luminescence, cherry-pick (AID 493248)
[11] = molecular target: DNA dC->dU-editing enzyme APOBEC-3G (Homo sapiens, UniProt Q9HC16); test: Dose Response confirmation of small molecule APOBEC3G DNA Deaminase Inhibitors via a fluorescence-based single-stranded DNA deaminase assay. [Related pubchem assays (depositor defined):AID493012, AID493028]; assay type: functional
[12] = molecular target: DNA dC->dU-editing enzyme APOBEC-3A (Homo sapiens, UniProt P31941); test: APOBEC3A DNA deaminase inhibitors, dose response, biochemical (AID 504722); assay type: functional
[13] = molecular target: T3, Streptokinase A (Streptococcus pyogenes serotype M1, UniProt P10520); test: S. pyogenes streptokinase expression inhibitors, potency, dose response, plasminogen activation absorbance, OD405 (AID 1914); assay type: functional, Streptococcus pyogenes M1 GAS;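 also: secreted streptokinase activity via plasminogen activation per viability signal from cell pellet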
T3 sequence (P10520 whole entry): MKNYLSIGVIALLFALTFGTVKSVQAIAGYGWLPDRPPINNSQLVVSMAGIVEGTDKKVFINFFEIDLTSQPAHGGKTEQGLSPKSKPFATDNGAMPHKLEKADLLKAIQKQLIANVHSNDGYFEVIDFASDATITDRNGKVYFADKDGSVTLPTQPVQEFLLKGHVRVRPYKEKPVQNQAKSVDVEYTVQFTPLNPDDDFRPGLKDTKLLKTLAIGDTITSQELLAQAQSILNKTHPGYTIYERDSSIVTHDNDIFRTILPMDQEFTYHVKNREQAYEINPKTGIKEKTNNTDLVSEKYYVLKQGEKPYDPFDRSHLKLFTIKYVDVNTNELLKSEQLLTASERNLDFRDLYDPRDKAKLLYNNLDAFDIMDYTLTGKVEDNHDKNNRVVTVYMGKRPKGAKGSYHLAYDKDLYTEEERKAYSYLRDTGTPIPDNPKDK

[14] = molecular target: Transitional endoplasmic reticulum ATPase (Homo sapiens, UniProt P55072, C522A); test: C522A mutant p97 ATPase inhibitors, dose response, counter-screen for p97 inhibitor project, biochemical, luminescence (AID 1544)
[15] = NIH-3T3 fibroblast cytotoxicity, dose response, cytotoxicity control, cell-based, fluorescence, Alamar Blue, secondary assay (AID 2327); assay type: functional;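 also: NIH-3T3 mouse fibroblasts cultured with fluconazole at 8 µg/mL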
[16] = molecular target: Transitional endoplasmic reticulum ATPase (Homo sapiens, UniProt P55072); test: p97 ATPase inhibitors, dose response, biochemical (AID 1534)
[17] = C. albicans growth with fluconazole, confirmation, fluorescence, retest (AID 2467); assay type: functional, cell-based
[18] = HepG2 cell cytotoxicity, dose response, cytotoxicity control, plate reader, dry powder samples (AID 1159569); assay type: functional, cell-based;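 also: inhibitor potency with signal falling toward the positive control level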
[19] = P. falciparum Dd2 growth inhibitors, dose response, SYBR Green, dry powder samples (AID 1159566); assay type: functional, cell-based;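 also: potency for growth inhibition with lower SYBR green DNA signal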
[20] = P. falciparum Dd2 growth inhibitors, dose response, SYBR Green, cherry-picked samples (AID 1159567); assay type: functional, cell-based
[21] = P. falciparum 3D7-ScDHODH growth inhibitors, dose response, SYBR Green, dry powder samples (AID 1159570); assay type: functional, cell-based;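 also: parasite growth measured after 72 hours of compound exposure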
[22] = P. falciparum ATP4 D1247Y mutant growth inhibitors, dose response, NITD609-resistant line, SYBR Green, dry powder (AID 1159571); assay type: functional, cell-based;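 also: parasites synchronized at ring stage by sorbitol before testing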

Chain of Transitional endoplasmic reticulum ATPase (Homo sapiens, UniProt P55072) (P55072 whole entry): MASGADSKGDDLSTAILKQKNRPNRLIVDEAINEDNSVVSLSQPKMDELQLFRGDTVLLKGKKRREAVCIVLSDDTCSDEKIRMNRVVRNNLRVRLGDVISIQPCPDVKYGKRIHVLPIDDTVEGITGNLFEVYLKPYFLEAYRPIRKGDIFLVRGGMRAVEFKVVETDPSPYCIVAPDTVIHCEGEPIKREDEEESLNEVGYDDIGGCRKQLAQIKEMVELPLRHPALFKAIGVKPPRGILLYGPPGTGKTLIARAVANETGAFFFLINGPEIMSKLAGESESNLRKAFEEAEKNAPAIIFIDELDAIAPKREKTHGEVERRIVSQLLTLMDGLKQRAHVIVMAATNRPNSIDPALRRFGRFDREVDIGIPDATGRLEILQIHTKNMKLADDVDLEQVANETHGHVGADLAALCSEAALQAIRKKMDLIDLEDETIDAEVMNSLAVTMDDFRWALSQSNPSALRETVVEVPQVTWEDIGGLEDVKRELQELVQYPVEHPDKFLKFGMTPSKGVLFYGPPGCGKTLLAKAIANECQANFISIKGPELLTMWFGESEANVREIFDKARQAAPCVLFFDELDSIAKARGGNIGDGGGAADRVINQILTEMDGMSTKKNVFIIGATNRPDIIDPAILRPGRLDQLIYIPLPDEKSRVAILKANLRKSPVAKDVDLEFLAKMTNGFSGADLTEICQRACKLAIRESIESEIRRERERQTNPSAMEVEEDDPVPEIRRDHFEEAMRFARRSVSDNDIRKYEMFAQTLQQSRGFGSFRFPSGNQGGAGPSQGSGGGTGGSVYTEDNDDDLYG
Chain of Transitional endoplasmic reticulum ATPase (Homo sapiens, UniProt P55072, C522A) (P55072 2-806 C522A limits assumed): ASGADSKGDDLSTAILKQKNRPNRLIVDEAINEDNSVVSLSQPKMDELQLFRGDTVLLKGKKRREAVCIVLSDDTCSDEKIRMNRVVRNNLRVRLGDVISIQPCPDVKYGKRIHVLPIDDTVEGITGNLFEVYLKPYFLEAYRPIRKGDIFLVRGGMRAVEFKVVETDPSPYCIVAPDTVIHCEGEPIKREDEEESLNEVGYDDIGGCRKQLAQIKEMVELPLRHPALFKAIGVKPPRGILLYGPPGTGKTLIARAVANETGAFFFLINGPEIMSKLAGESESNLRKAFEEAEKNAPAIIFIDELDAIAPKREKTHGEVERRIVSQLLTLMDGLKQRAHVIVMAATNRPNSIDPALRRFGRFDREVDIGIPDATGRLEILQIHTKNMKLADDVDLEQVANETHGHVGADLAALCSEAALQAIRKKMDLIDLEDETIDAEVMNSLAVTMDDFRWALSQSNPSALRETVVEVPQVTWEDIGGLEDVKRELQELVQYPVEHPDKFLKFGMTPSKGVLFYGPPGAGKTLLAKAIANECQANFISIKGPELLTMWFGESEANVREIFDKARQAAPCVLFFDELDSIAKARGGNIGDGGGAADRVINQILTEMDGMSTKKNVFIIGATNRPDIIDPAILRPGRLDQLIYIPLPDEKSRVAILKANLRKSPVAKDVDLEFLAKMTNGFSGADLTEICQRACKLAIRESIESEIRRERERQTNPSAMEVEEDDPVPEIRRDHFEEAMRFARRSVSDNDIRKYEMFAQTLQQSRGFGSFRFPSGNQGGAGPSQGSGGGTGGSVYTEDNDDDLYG
Chain of FAD-linked sulfhydryl oxidase ALR (P55789 whole entry): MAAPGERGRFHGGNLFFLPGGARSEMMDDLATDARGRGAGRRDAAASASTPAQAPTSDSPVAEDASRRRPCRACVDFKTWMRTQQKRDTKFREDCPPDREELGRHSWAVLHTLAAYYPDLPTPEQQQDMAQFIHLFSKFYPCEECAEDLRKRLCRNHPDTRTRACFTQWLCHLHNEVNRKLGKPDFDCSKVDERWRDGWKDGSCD
Chain of DNA dC->dU-editing enzyme APOBEC-3G (Q9HC16 whole entry): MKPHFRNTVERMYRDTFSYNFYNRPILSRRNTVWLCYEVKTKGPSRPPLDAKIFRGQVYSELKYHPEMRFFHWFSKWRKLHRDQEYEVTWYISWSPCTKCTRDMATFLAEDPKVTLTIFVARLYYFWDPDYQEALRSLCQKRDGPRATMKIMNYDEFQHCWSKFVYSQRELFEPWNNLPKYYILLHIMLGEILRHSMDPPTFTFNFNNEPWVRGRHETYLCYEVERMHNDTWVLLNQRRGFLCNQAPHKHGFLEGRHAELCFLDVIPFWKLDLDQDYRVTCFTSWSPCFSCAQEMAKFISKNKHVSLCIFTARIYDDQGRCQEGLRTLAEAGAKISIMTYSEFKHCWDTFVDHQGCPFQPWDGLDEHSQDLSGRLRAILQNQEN
Chain of G-protein coupled receptor 55 (Q9Y2T6 whole entry): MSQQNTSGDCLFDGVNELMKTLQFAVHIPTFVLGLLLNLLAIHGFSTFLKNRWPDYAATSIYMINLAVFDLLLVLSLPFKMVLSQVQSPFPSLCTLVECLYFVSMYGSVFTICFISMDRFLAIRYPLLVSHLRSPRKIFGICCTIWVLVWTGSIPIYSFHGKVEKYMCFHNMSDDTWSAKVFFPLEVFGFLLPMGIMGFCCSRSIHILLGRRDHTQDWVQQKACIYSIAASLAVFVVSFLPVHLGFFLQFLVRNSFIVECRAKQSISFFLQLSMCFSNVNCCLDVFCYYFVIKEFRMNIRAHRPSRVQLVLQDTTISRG
Chain of DNA dC->dU-editing enzyme APOBEC-3A (P31941 whole entry): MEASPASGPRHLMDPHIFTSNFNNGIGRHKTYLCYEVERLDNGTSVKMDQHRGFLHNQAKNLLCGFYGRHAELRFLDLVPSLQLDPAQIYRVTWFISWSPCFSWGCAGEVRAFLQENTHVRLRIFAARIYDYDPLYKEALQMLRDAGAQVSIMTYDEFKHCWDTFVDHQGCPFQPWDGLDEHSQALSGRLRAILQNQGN

## O=P(NS(=O)(=O)c1ccc(Br)cc1)(Oc1ccccc1)Oc1ccccc1
[1]
  IC50: 30.1 µM (active)

## COC(=O)c1ccc(Cn2cc(C(F)(F)F)cc([N+](=O)[O-])c2=O)cc1
[2]
  IC50: 1.28 µM (active)

## N#CC1=C(S)N(c2ccccc2)C(c2ccc(-c3cc(Cl)ccc3Cl)o2)NC1=O (stereo not given)
[3]
  EC50: > 32 µM (inactive)

## Oc1ccc(COCc2ccccc2)c2cccnc12
[4]
  EC50: 3.25 µM (active)
[5]
  EC50: 10.4 µM (active)
[6]
  EC50: 2.14 µM (active)
[7]
  EC50: 8.49 µM (active)
[8]
  AC50: 1.77 µM (active)

## CCc1ccc(-c2nn(Cc3ccccc3)cc2/C=C/C(=O)O)cc1
[1]
  IC50: 31.5 µM (active)

## CC(NC(=O)COc1ccc(-c2ccccc2)cc1)C1CCCO1 (stereo not given)
[2]
  IC50: 45.6 µM (active)

## Cc1ccc(/C=N/n2c(S)nnc2-c2cccnc2)s1
[9]
  IC50: 53.9 µM (active)
[10]
  AC50: 2.34 µM (active)
[11]
  IC50: 2 µM (active)
[12]
  IC50: > 100 µM (inactive)

## Cc1ccc(SC/C(O)=C(\C#N)c2nc3ccccc3s2)cc1
[4]
  EC50: 7.74 µM (active)
[13]
  EC50: > 150 µM (not active)
[14]
  IC50: > 50 µM (not active)
[6]
  EC50: 2.95 µM (active)
[15]
  EC50: 138 µM (active)
[16]
  IC50: > 50 µM (not active)
[17]
  EC50: 0.425 µM (active)

## COc1ccc(-c2ccccc2[C@H]2[C@@H](C#N)N(C(=O)NC3CCCCC3)[C@H]2CO)cc1
[18]
  AC50: > 100 µM (inactive)
[19]
  AC50: 3.88 µM (active)
[20]
  AC50: 3.13 µM (active)
[21]
  AC50: 4.54 µM (active)
[22]
  AC50: 8.21 µM (active)

## COc1ccccc1NC(=O)N1CCCCN2[C@H](CO)[C@H](c3ccc(C#Cc4ccccc4)cc3)[C@@H]2C1
[18]
  AC50: > 100 µM (inactive)
[19]
  AC50: 0.118 µM (active)
[20]
  AC50: < 0.3 µM (active)
[21]
  AC50: 0.0745 µM (active)
[22]
  AC50: 0.0817 µM (active)

## CO[C@H]1CN(C)C(=O)c2cc(NC(=O)c3ccccc3F)ccc2OC[C@H](C)N(C(=O)c2ccccc2F)C[C@H]1C
[18]
  AC50: > 100 µM (inactive)
[19]
  AC50: 1.78 µM (active)
[20]
  AC50: 2.47 µM (active)
[21]
  AC50: 2.93 µM (active)
[22]
  AC50: 1.53 µM (active)

## CO[C@H]1CN(C)C(=O)c2ccc(NC(=O)Nc3ccc(C(F)(F)F)cc3)cc2OC[C@H](C)NC[C@H]1C
[18]
  AC50: 26.9 µM (active)
[19]
  AC50: 2.16 µM (active)
[20]
  AC50: 3.01 µM (active)
[21]
  AC50: 1.37 µM (active)
[22]
  AC50: 2.17 µM (active)

## CCCCC(=O)O[C@H]1CC[C@H]2[C@@H]3CCc4cc(O)ccc4[C@H]3CC[C@]12C [ESTRADIOL VALERATE]
[4]
  EC50: 2.29 µM (active)
[5]
  EC50: 18.9 µM (active)
[6]
  EC50: 2.3 µM (active)
[7]
  EC50: > 20 µM (not active)
